Source: ChEMBL document CHEMBL4257526, “Identification of an auxiliary druggable pocket in the DNA gyrase ATPase domain using fragment probes” (Medchemcomm, 2018)

target: DNA gyrase (Escherichia coli, UniProt P0AES4+P0AES6); assay: Inhibition of full length Escherichia coli DNA gyrase ATPase activity measured for 20 mins by lactate dehydrogenase assay; format: protein-complex assay

In order of falling IC50:
1. CC(C)(c1ccccc1)c1ccc(O)cc1  390 µM
2. Oc1ccc(Oc2cccc(Cl)c2)cc1  320 µM
3. Oc1ccc(Oc2ccc(Cl)cc2)cc1  270 µM
4. Oc1ccc(Oc2cccc(C(F)(F)F)c2)cc1  240 µM
5. Oc1ccc(Oc2ccc(C(F)(F)F)cc2)cc1  180 µM
6. Cc1ccc(CCC(=O)O)cc1  120 µM
7. Oc1ccc(Oc2ccc(Cl)cc2Cl)cc1  120 µM
8. Oc1ccc(Oc2ccc(C(F)(F)F)cc2Cl)cc1  100 µM
9. Cc1cc(Oc2ccc(Cl)cc2Cl)ccc1O  84 µM
